# In patent US20230113037A1 (Bayer Aktiengesellschaft, priority 2019, published 2023):
# Like-named read-outs stand apart in the source and are kept apart here.
# Assays:
# [1] = biological target: T1, AHR (Mus musculus, UniProt P30561); experiment: In vitro assay 3: antagonism in mouse cell line (AHR transactivation, firefly luciferase reporter, kynurenic acid prestimulated); type: cell-based
# T1 sequence (P30561 1-848 P471L/N533S/M589L): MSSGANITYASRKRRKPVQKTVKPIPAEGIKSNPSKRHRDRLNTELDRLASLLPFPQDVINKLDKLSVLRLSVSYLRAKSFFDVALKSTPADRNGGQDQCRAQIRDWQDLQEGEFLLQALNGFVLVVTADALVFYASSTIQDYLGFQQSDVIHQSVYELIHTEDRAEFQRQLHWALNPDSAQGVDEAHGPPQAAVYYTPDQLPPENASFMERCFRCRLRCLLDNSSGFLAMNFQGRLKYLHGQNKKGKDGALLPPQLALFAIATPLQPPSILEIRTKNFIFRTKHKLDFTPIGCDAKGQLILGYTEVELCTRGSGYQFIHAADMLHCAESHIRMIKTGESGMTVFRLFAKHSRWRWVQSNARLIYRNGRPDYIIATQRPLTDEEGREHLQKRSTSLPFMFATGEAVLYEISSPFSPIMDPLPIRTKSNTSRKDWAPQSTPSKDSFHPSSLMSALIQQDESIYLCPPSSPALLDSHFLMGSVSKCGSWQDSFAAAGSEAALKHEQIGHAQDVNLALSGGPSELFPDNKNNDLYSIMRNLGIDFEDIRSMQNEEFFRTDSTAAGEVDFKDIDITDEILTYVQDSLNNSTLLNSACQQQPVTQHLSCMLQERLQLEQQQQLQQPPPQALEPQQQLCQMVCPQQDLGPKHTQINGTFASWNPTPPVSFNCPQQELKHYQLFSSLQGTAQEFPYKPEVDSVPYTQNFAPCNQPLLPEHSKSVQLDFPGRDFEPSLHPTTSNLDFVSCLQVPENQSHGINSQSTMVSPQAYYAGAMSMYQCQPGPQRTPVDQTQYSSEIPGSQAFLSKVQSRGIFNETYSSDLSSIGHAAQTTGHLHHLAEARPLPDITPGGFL
# Summary of the method: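 Mouse cells stably carrying a DRE-driven AHR-inducible firefly luciferase reporter were prestimulated with the endogenous agonist kynurenic acid before compound addition. Luciferase read by SteadyGlo; cells without kynurenic acid served as full-inhibition control, with normalization to positive and negative controls. Repeat tests reported as mean or median.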
# [2] = biological target: T2, AHR (Homo sapiens, UniProt P35869); experiment: In vitro assay 1: antagonism in human cell line (AHR transactivation, firefly luciferase reporter, kynurenic acid prestimulated); type: cell-based; details: AHR Antagonism Human IC50 [M]
# T2 construct: U87 MG glioblastoma cells (ATCC #HTB-14) endogenously expressing AHR; endogenous in cells; host or cells: U87 MG glioblastoma cells (ATCC #HTB-14)
# T2 sequence (P35869 11-848): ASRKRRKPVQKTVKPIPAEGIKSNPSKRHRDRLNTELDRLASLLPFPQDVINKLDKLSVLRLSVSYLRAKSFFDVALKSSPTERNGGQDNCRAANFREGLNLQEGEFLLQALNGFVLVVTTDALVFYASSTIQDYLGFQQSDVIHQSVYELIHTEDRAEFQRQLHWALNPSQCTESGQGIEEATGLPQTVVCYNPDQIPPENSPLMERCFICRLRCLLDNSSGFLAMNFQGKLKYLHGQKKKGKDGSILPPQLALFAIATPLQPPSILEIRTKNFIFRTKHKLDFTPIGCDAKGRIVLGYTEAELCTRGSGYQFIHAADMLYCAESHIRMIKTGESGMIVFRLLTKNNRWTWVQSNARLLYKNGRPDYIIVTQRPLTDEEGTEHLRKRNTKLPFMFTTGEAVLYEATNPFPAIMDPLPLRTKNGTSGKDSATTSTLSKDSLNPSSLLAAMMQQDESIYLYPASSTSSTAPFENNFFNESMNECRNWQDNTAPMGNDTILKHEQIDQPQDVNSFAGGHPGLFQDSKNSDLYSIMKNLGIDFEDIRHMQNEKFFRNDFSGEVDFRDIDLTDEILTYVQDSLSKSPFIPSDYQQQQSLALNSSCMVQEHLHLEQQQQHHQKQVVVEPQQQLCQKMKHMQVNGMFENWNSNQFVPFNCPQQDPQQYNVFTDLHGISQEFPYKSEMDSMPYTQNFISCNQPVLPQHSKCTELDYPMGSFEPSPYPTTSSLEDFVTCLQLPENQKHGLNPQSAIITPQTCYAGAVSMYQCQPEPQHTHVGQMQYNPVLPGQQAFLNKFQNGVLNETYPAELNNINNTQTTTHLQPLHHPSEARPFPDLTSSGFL
# Summary of the method: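 U87 MG + DRE-firefly/constitutive-Renilla stable reporters; kynurenic acid prestim; dual-luc read; Renilla = tox; normalized vs pos/neg controls (pos: 150 μM KYNA + 5 μM staurosporine).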
# [3] = mouse Hepa 1c1c7 cells, 200 μM kynurenic acid, 20 hours, read-out: AHR Antagonism Mouse IC50
# [4] = Hepa 1c1c7 cells, 200 μM kynurenic acid, 20 hours, firefly luciferase reporter, read-out: AHR Antagonism Mouse IC50
Compound,"IC50 [1, 3] [nM]",IC50 [2] [M],"IC50 [1, 4] [nM]",IC50 ([2]; firefly luciferase reporter) [M],"IC50 ([1]; read-out: AHR Antagonism Mouse IC50, mouse Hepa 1c1c7 cells, 200 μM kynurenic acid, 20 hours) [nM]"
"O=C1NCC[C@H]1Nc1nc2ccccc2c2nc(-c3ccccc3OC(F)(F)F)nn12 [Example 459, (3R)-3-({2-[2-(trifluoromethoxy)phenyl][1,2,4]triazolo[1,5-c]quinazolin-5-yl}amino)pyrrolidin-2-one]",30.2,7.9e-08,,,
"COc1cccc(-c2nc3c4cc(F)ccc4nc(N[C@H]4CCCCNC4=O)n3n2)c1 [Example 160, (3S)-3-{[9-fluoro-2-(3-methoxyphenyl)[1,2,4]triazolo[1,5-c]quinazolin-5-yl]amino}azepan-2-one]",15.4,1.43e-07,,,
"CC[C@@H](Nc1nc2ccccc2c2nc(-c3cnccn3)nn12)C(N)=O [Example 691, (2R)-2-{[2-(pyrazin-2-yl)[1,2,4]triazolo[1,5-c]quinazolin-5-yl]amino}butanamide]",240,5.61e-07,,,
"Cn1cc(-c2nc3c4cccc(C(F)(F)F)c4nc(N[C@@H]4CCCNC4=O)n3n2)cn1 [Example 585, (3R)-3-{[2-(1-methyl-1H-pyrazol-4-yl)-7-(trifluoromethyl)[1,2,4]triazolo[1,5-c]quinazolin-5-yl]amino}piperidin-2-one]",830,6.91e-08,,,
"COc1cccc(-c2nc3c4ccccc4nc(NC4CNCCNC4=O)n3n2)c1 (centres unmarked) [Example 115, 6-{[2-(3-methoxyphenyl)[1,2,4]triazolo[1,5-c]quinazolin-5-yl]amino}-1,4-diazepan-5-one]",68,1.11e-06,,,
"CCCNC(=O)[C@@H](CC)Nc1nc2c(Br)cccc2c2nc(-c3ccc(Cl)cc3OC(F)F)nn12 [Example 797, (2R)-2-({7-bromo-2-[4-chloro-2-(difluoromethoxy)phenyl][1,2,4]triazolo[1,5-c]quinazolin-5-yl}amino)-N-propylbutanamide]",,,0.963,1.58e-09,
"COc1cccc(-c2nc3c4c(C)cccc4nc(N[C@H]4CCCCNC4=O)n3n2)c1 [Example 181, (3S)-3-{[2-(3-methoxyphenyl)-10-methyl[1,2,4]triazolo[1,5-c]quinazolin-5-yl]amino}azepan-2-one]",25.7,3.37e-07,,,
Cc1cc(-c2nc3c4ccccc4nc(N[C@@H]4CCN(C)C4=O)n3n2)cs1 [Example 355],36.6,3.79e-08,,,
"N#Cc1ccc(-c2nc3c4ccccc4nc(N[C@@H]4CCCNC4=O)n3n2)cc1 [Example 389, 4-(5-{[(3R)-2-oxopiperidin-3-yl]amino}[1,2,4]triazolo[1,5-c]quinazolin-2-yl)benzonitrile]",26.7,1.76e-08,,,
"O=C1NCCCC[C@H]1Nc1nc2c(C(F)(F)F)cccc2c2nc(-c3ccc(Cl)cc3)nn12 [Example 833, (3R)-3-{[2-(4-chlorophenyl)-7-(trifluoromethyl)[1,2,4]triazolo[1,5-c]quinazolin-5-yl]amino}azepan-2-one]",,,1.27,1.12e-09,
"Cc1n[nH]c(C)c1-c1nc2c3ccccc3nc(N[C@@H]3CCCCNC3=O)n2n1 [Example 536, (3R)-3-{[2-(3,5-dimethyl-1H-pyrazol-4-yl)[1,2,4]triazolo[1,5-c]quinazolin-5-yl]amino}azepan-2-one]",94.7,8.6e-08,,,
"CN1CC[C@@H](Nc2nc3c(C(F)(F)F)cccc3c3nc(-c4cnn(C)c4)nn23)C1=O [Example 733, (3R)-1-methyl-3-{[2-(1-methyl-1H-pyrazol-4-yl)-7-(trifluoromethyl)[1,2,4]triazolo[1,5-c]quinazolin-5-yl]amino}pyrrolidin-2-one]",6640,2.58e-07,,,
"Cc1ccccc1-c1nc2c3ccccc3nc(N[C@H]3CCCCNC3=O)n2n1 [Example 41, (3S)-3-{[2-(2-methylphenyl)[1,2,4]triazolo[1,5-c]quinazolin-5-yl]amino}azepan-2-one]",,2.12e-08,,,1.7
"C[C@@H](Nc1nc2ccccc2c2nc(-c3cc(Cl)ccc3OC(F)(F)F)nn12)C(=O)NCCN(C)C [Example 775, N^2-{2-[5-chloro-2-(trifluoromethoxy)phenyl][1,2,4]triazolo[1,5-c]quinazolin-5-yl}-N-[2-(dimethylamino)ethyl]-D-alaninamide]",743,3.13e-06,,,
"Cc1c(-c2nc3c4cccc(Br)c4nc(N[C@@H]4CCCCNC4=O)n3n2)cnn1C [Example 823, (3R)-3-{[7-bromo-2-(1,5-dimethyl-1H-pyrazol-4-yl)[1,2,4]triazolo[1,5-c]quinazolin-5-yl]amino}azepan-2-one]",,,3.01,2.13e-09,

# The remaining compounds from weak to strong by IC50 [1, 3], led by results:
"IC50 [1, 3] [nM]",IC50 [2] [M],"IC50 [1, 4] [nM]",IC50 ([2]; firefly luciferase reporter) [M],Compound,"IC50 ([1]; read-out: AHR Antagonism Mouse IC50, mouse Hepa 1c1c7 cells, 200 μM kynurenic acid, 20 hours) [nM]"
9.2,7.1e-09,,,"Cn1ccc(-c2nc3c4cccc(C(F)(F)F)c4nc(N[C@@H]4CCCCNC4=O)n3n2)n1 [Example 735, (3R)-3-{[2-(1-methyl-1H-pyrazol-3-yl)-7-(trifluoromethyl)[1,2,4]triazolo[1,5-c]quinazolin-5-yl]amino}azepan-2-one]",
6.47,1.85e-08,,,"CC(C)Oc1ccc(-c2nc3c4ccccc4nc(N[C@@H]4CNCCNC4=O)n3n2)cc1 [Example 415, (6R)-6-[(2-{4-[(propan-2-yl)oxy]phenyl}[1,2,4]triazolo[1,5-c]quinazolin-5-yl)amino]-1,4-diazepan-5-one]",
3.63,6.89e-09,,,"C[S+]([O-])c1ccccc1-c1nc2c3ccccc3nc(N[C@@H]3CCCCNC3=O)n2n1 (mixture of isomers) [Example 648, (3R)-3-[(2-{2-[methanesulfinyl]phenyl}[1,2,4]triazolo[1,5-c]quinazolin-5-yl)amino]azepan-2-one]",
3.16,4.36e-09,,,"O=C1NCCCC[C@H]1Nc1nc2ccccc2c2nc(-c3ccsc3Cl)nn12 [Example 611, (3R)-3-{[2-(2-chlorothiophen-3-yl)[1,2,4]triazolo[1,5-c]quinazolin-5-yl]amino}azepan-2-one]",
2.89,5.94e-09,,,"NC(=O)[C@@H](CO)Nc1nc2ccccc2c2nc(-c3ccc(OC(F)(F)F)cc3)nn12 [Example 329, N^2-{2-[4-(trifluoromethoxy)phenyl][1,2,4]triazolo[1,5-c]quinazolin-5-yl}-D-serinamide]",
2.12,1.54e-09,,,"CCc1nn(C2CC2)cc1-c1nc2c3cccc(C(F)(F)F)c3nc(N[C@@H]3CCCCNC3=O)n2n1 [Example 749, (3R)-3-{[2-(1-cyclopropyl-3-ethyl-1H-pyrazol-4-yl)-7-(trifluoromethyl)[1,2,4]triazolo[1,5-c]quinazolin-5-yl]amino}azepan-2-one]",
1.47,9.83e-10,,,"COc1ccc(-c2nc3c4cccc(Br)c4nc(N[C@@H]4COCCNC4=O)n3n2)cc1 [Example 699, (6R)-6-{[7-bromo-2-(4-methoxyphenyl)[1,2,4]triazolo[1,5-c]quinazolin-5-yl]amino}-1,4-oxazepan-5-one]",
